Measurements published in PubChem BioAssay (NCI).
Where “and” joins values, the source holds several entries; their conditions need not be identical. Equal entries are not always repeated.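 Protocol summary: plate cells (96-well), add compound at 5 concentrations, incubate 48 h, interpolate endpoints linearly. GI50 marks 50% less growth. Definition used: TGI = concentration required for complete inhibition of growth.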

Columns and labels:
Test in all cases: NCI-60 cell line screen, 48 h
SF-539 CNS = system: SF-539 CNS
U251 CNS = system: U251 CNS
MDA-MB-231 breast = system: MDA-MB-231 breast
SK-MEL-2 melanoma = system: SK-MEL-2 melanoma
PC-3 prostate = system: PC-3 prostate
SW-620 colon = system: SW-620 colon
A498 renal = system: A498 renal
SF-295 CNS = system: SF-295 CNS
LOX IMVI melanoma = system: LOX IMVI melanoma
OVCAR-3 ovarian = system: OVCAR-3 ovarian

Compound	GI50 (SF-539 CNS)	TGI (SF-539 CNS)	GI50 (U251 CNS) [µM]	TGI (U251 CNS)	GI50 (MDA-MB-231 breast) [µM]	TGI (MDA-MB-231 breast)	GI50 (SK-MEL-2 melanoma)	TGI (SK-MEL-2 melanoma)	GI50 (PC-3 prostate)	TGI (PC-3 prostate)	GI50 (SW-620 colon) [µM]	TGI (SW-620 colon)	GI50 (A498 renal)	TGI (A498 renal)	GI50 (SF-295 CNS) [µM]	TGI (SF-295 CNS)	GI50 (LOX IMVI melanoma) [µM]	TGI (LOX IMVI melanoma)	GI50 (OVCAR-3 ovarian) [µM]	TGI (OVCAR-3 ovarian) [µM]
CC1(C)N=C(N)N=C(N)N1c1ccc(CCCCc2ccc(Cl)c(S(=O)(=O)F)c2)c(Cl)c1	0.542 µM	13 µM	0.437	19.6 µM	4.03	20.6 µM	2.45 µM	> 33.6 µM	0.214 µM	15.1 µM	0.147	15.4 µM	5.56 µM	25.7 µM	0.995	10.6 µM	0.13	17.5 µM	2.22	15.1
C[C@H](Nc1cc(Cl)nc2c1cnn2[C@@H]1O[C@H](COP(=O)(O)CP(=O)(O)O)[C@@H](O)[C@H]1O)c1ccccc1F	> 100 µM	> 100 µM	> 100	> 100 µM	> 100	> 100 µM	> 100 µM	> 100 µM	> 100 µM	> 100 µM	> 100	> 100 µM	32.3 µM	> 100 µM	> 100	> 100 µM	> 100	> 100 µM	> 100	> 100
COc1ccc(-c2nsc3c2NC(=O)CC3c2cccc(OC)c2)cc1 (stereo not given)	1.87 µM	6.7 µM	1.83	> 100 µM	1.17	> 100 µM	3.81 µM	64.1 µM	2.45 µM	> 100 µM	0.412	> 100 µM	0.408 µM	5.02 µM	1.54	12.4 µM	0.689	> 100 µM	0.705	4.41
CCCCCCCN=C(N)c1ccc(N2CCN(c3ccc(C(N)=NCCCCCCC)cc3)CC2)cc1			1.45	9.34 µM	0.165	0.703 µM	1.99 µM	> 100 µM	0.268 µM	> 20 µM	0.259	> 31.7 µM	3.32 µM	> 100 µM	0.0628	0.28 µM	1.52	19.1 µM	0.162	0.517
CN1CC[C@@H](c2c(O)cc(O)c3c(=O)cc(-c4ccc(C(F)(F)F)cc4Cl)oc23)[C@@H]1CO	13.7 µM	28.8 µM	16.7	33.9 µM	12.7	34.3 µM	18.1 µM	41 µM	19 µM	44.5 µM	14.7	31.5 µM	14.2 µM	27.6 µM	16.7	36.4 µM	11.9	25.6 µM	17	46.9
C=CCc1ccc(O)c(-c2ccc(O)c(CC=C)c2)c1	16.6 µM	31.8 µM	14.3	31.8 µM	12.1	25.6 µM	14.5 µM	33 µM	15.2 µM	33.2 µM	18.7	36.9 µM	17.4 µM	31.9 µM	19.6	44.7 µM	15.7	34.3 µM	14.5	30.6
COC12C(COC(N)=O)C3=C(C(=O)C(C)=C(N)C3=O)N1CC1C2N1C (stereo not given)		46.7 µM		22.6 µM		115 µM		31.2 µM		61.6 µM		35.8 µM		21.2 µM		18.1 µM		20.2 µM		35.4
Cn1c(Nc2ccc(C(F)(F)F)cc2)nc2cc(Oc3ccnc(-c4ncc(C(F)(F)F)[nH]4)c3)ccc21	0.232 µM	13.7 µM	0.154	12.9 µM	0.803	12.2 µM	0.0387 µM	0.728 µM	1.53 µM	17.2 µM	0.578	12.7 µM	0.0297 µM	0.851 µM	0.402	11.8 µM	0.0599	1.78 µM	1.54	7.54
CCc1ccc(/C=C/c2ccc(O)c3ncccc23)[n+](C)c1	20.4 µM	> 100 µM	0.661	> 100 µM	57.9	> 100 µM	> 71.7 µM	> 100 µM	6.09 µM	> 100 µM	4.47	> 100 µM	1.42 µM	> 63 µM	1.88	> 100 µM	35.8	> 100 µM	0.671	> 23.4
CN(C)c1ncnc2c1ncn2CCn1cnc2c(N(C)C)ncnc21		> 100 µM		> 100 µM		> 100 µM		> 100 µM		> 100 µM		> 100 µM		> 100 µM		> 100 µM		> 100 µM		> 100
C[C@H]1CN[C@@H]2[C@@H](C)[C@H]3[C@@H](C[C@H]4[C@@H]5CC[C@H]6C[C@@H](N)CC[C@]6(C)[C@H]5CC[C@]34C)O[C@@]2(O)C1		3.27 µM		4.9 µM		4.3 µM		12.2 µM		13.9 µM		6.23 µM		1.44 µM		10.3 µM		4.08 µM		5.96
Clc1nc(Cl)nc(Nc2cccc3ccccc23)n1	> 100 µM	> 100 µM	> 100	> 100 µM	63.9	> 100 µM	80.7 µM	> 100 µM	84.2 µM	> 100 µM	94.7	> 100 µM	> 100 µM	> 100 µM	64	> 100 µM	33.5	> 100 µM	> 100	> 100
CN(C)CCSc1cc(-c2ccccc2)c2ccccc2n1		23 µM		22.5 µM		24 µM		28.6 µM		24.6 µM		23.2 µM		33 µM		28 µM		26.6 µM		
O=S(=O)(Nc1ccc(Cl)cc1Cl)c1ccc(-c2cnc(C3CC3)o2)cc1	0.414 µM	7.55 µM	0.613	33.8 µM	2.08	28.4 µM	3.03 µM	42.2 µM	0.612 µM	> 53.2 µM	0.423	> 100 µM	0.197 µM	0.875 µM	0.335	3.4 µM	0.542	34 µM	0.439	15
Cc1ccc(Nc2oc(-c3ccccc3)nc2[P+](c2ccccc2)(c2ccccc2)c2ccccc2)cc1	1.59 µM	3.02 µM	0.538	1.71 µM	0.788	2.17 µM	0.625 µM	1.85 µM	0.585 µM	2.01 µM	0.675	2.05 µM	0.697 µM	2.36 µM	1.24	2.6 µM	0.833	2.11 µM	0.299	1
CSc1ccccc1C#C/C=C\C#Cc1ccccc1N	7.2 µM	23.6 µM	10.3	55.3 µM	4.69	22.2 µM	6.13 µM	> 100 µM	14.5 µM	> 100 µM	3.72	14.8 µM	4.18 µM	14.5 µM	1.83	5.55 µM	9.52	25.2 µM	0.836	3.98
COc1ccc(/C(=C\C=C(C#N)C#N)Sc2nc3ccccc3s2)cc1	1.19 µM	2.59 µM	3.39	11 µM	6.71	14.4 µM	34.1 µM	> 50 µM	7.34 µM	14.3 µM	1.77	> 50 µM	16.4 µM	28.5 µM	13.6	39.9 µM			8.26	17.7
C[C@@]12CCC[C@@](C)(C(=O)O)C1CC[C@]13CC(=O)[C@](CO)(C1)[C@@H](O)CC32 (stereo not given in full)	> 100 µM	> 100 µM	> 100	> 100 µM	> 100	> 100 µM	> 100 µM	> 100 µM	> 100 µM	> 100 µM	> 100	> 100 µM	> 100 µM	> 100 µM	> 100	> 100 µM	> 100	> 100 µM	> 100	> 100
O=C1c2cccc3cccc(c23)C(=O)N1CCCCCN1CCN(CCCCCOc2ccc(-c3nc4ccc(N5CCOCC5)cc4[nH]3)cc2)CC1	10.6 µM	29 µM	5.47	10.2 µM	12.6	> 20.4 µM	10.7 µM	32.8 µM	2.77 µM	17.6 µM	1.83	4.21 µM	> 74.9 µM	> 100 µM	8.04	25.4 µM	3.01	7.97 µM	6.07	11.2
COc1ccc2c(c1)c[n+](C)c1c3cc(OC)c(OC)cc3ccc21	1.95 µM and 6.15 µM	3.5 µM and 13.9 µM		2.3 µM and 5.45 µM		2.83 µM and 3.07 µM	2.3 µM and 7.11 µM	6.12 µM and 16.9 µM	1.36 µM and 4.32 µM	3.84 µM and 16 µM		3.13 µM and 3.76 µM	2.02 µM and 19.7 µM	6.85 µM and 57.7 µM	5.06	17.8 µM		2.65 µM and 4.96 µM		15
CC1(Br)Cc2ccccc2C1=O (stereo not given)		16.8 µM		18.7 µM		22.9 µM		24.2 µM		22.5 µM	0.444	2.69 µM		57.2 µM		36.2 µM	0.533	2.41 µM	4.11	14.5
O=[N+]([O-])c1cccc2ccc(N/N=C/c3ccccc3O)nc12	> 100 µM	> 100 µM	> 59.7	> 100 µM	> 100	> 100 µM	> 100 µM	> 100 µM	4.67 µM	> 100 µM	3.88	> 100 µM	> 100 µM	> 100 µM	> 87.6	> 100 µM	> 100	> 100 µM	4.48	> 100
CSc1nc(NC2OC(COC(C)=O)C(OC(C)=O)C(OC(C)=O)C2OC(C)=O)c(N=CC=Nc2c(NC3OC(COC(C)=O)C(OC(C)=O)C(OC(C)=O)C3OC(C)=O)nc(SC)n(C)c2=O)c(=O)n1C (stereo not given)		50 µM and 69.3 µM	20.6	50 µM and > 100 µM	25.2	50 µM and > 100 µM	25.2 µM	50 µM and > 96 µM	> 50 µM	> 100 µM	> 50	> 100 µM	> 50 µM	> 50 µM and 82.8 µM	> 50	> 50 µM and 98.8 µM	> 50	> 100 µM	> 50	> 50
CC(C)=CCc1cc(O)cc2c1OC(C=C(C)C)C1=C2C(=O)C2=C(C1=O)S(=O)(=O)CCN2 (stereo not given)	2.8 µM	5.09 µM	2.84	5.15 µM	2.99	8.27 µM	3.13 µM	6.56 µM	5.09 µM	> 16.7 µM	5.34	16.5 µM	9.61 µM	> 16.7 µM			3.48	10.2 µM	1.18	14.8
COC(=O)c1cc2c(s1)-c1nccc3c1c(nc1ccccc13)C2=O			50.6	> 100 µM	28.6	> 100 µM	> 100 µM	> 100 µM	> 100 µM	> 100 µM	61.7	> 100 µM	> 100 µM	> 100 µM	> 100	> 100 µM	29	> 100 µM	16.5	56.2
COc1ccc(C(O)(CCC(C)C)C(CN2CCOCC2)c2ccc(Cl)cc2)cc1 (stereo not given)	15.4 µM	30.3 µM	12.3	26.3 µM	12.1	27.2 µM			6.03 µM	21 µM	11.4	26.8 µM	10.9 µM	23.4 µM	13.4	29.8 µM	14.5	28 µM	12.9	26.2
O=C(/C=C/C=C/c1ccccc1)c1ccccc1		32.8 µM		27 µM		37.8 µM		45.5 µM		37.2 µM		30.3 µM		31.5 µM				29.3 µM		34.3
